Experimental data from patent US4774252A, “Benzisoselenazolonyl derivatives and processes for the treatment of rheumatic disease” (priority 1985, dated 1988).

How the values were obtained:
[1] = test system: CVF-oedema, carragenine-test; details: S. Leyck et al., Agents and Actions 13, 437-438 (1983); cited from earlier work
[2] = test system: Cobra-Venom-Factor (CVF)-oedema; assay: CVF-oedema test (inflammation-inhibiting activity); format: in vivo; details: po, read-out: ED50 values in CVF-oedema

Row | SMILES | inhibiting effect in CVF-oedema-test as compared with carragenine-test [1] | ED50 [2] [mg/kg]
1 | O=C1CCN(c2ccccc2)N1 [phenidone] | more significant inhibiting effect in CVF-oedema-test as in carragenine-test | 
2 | CC(C)C(C(=O)O)n1[se]c2ccccc2c1=O (racemic) [DL-2-(1,2-Benzisoselenazole-3(2H)-one-2-yl)-3-methylbutyric acid] |  | 5
3 | c1ccc([C@H]2CN3CCSC3=N2)cc1 [levamisole] | more significant inhibiting effect in CVF-oedema-test as in carragenine-test | 
